Reference: patent publication US20220370481A1, “VENETOCLAX DOSING REGIMENS FOR USE IN TREATING MYELODYSPLASTIC SYNDROMES IN COMBINATION WITH A CYP3A INHIBITOR AND AZACITIDINE” (priority 2021, published 2022)
Where two headings read alike, the source gives them in different places.

System: adults with previously untreated higher-risk MDS
Settings: with azacitidine
Method: A multicenter, non-randomized Phase 1b study in adults with previously untreated higher-risk MDS, defined as IPSS risk categories of Int-2 or High (IPSS overall score ≥1.5) was initiated. The original protocol randomized patients into 1 of 3 treatment groups: venetoclax 800 mg + azacitidine, venetoclax 400 mg + azacitidine, and azacitidine monotherapy. Under the original protocol, venetoclax was administered on Days 1 through 28 of each 28-day-cycle and dosing was initiated according to a ramp-up dosing schedule in Cycle 1.
Subjects 18 years or older diagnosed with treatment-naïve IPSS intermediate-2 or high-risk myelodysplastic syndromes with ECOG ≤2 were enrolled. For this study, inclusion criteria included the following: • 1. Subject must be ≥18 years of age. • 2. Subject must have documented diagnosis of previously untreated de novo MDS with: • a. International Prognostic Scoring System (IPSS) risk categories Intermediate-2 or High (i.e., minimum IPSS score of 1.5) OR Revised IPSS (IPSS-R) categories Intermediate, High or Very High (score of >3); and • b. Presence of <20% bone marrow blasts per bone marrow biopsy/aspirate. • 3. Subject must have an Eastern Cooperative Oncology Group (ECOG) performance score of ≤2.
Azacitidine 75 mg/m^2 (intravenous or subcutaneous daily) was administered for 7 days and venetoclax was administered at 400 mg for 14 days in each 28 day cycle. In both cohorts, dose modification during Cycle 1 was not recommended. Dose modifications in subsequent cycles were prescribed for adverse events. […] In subsequent cycles, venetoclax duration could be shortened to 9 days of each cycle. In Safety Expansion Cohort 2 (SE2), dose modification guidelines recommended stepwise reductions, first in azacitidine dose (first to 50 mg/m^2, then 36 mg/m^2) and subsequently in venetoclax duration to 7 days of each cycle (venetoclax 400 mg) as shown in Table 4. The impact of each dose modification strategy on safety and efficacy in SE1 versus SE2 was compared. Worsening of treatment-emergent adverse events grades from baseline was analyzed by cycle. Responses were evaluated using IWG 2006 criteria. Analyses included all subject who received ≥1 dose of study drug.
After a previous interruption of treatment, delay starting the next cycle, onset of adverse events associated with hematological toxicity, significant reduction of neutrophils, or significant reduction of platelets, a treatment dose reduction may be indicated. […] Venetoclax and azacitidine were resumed on the same day after any delays or interruptions in treatment.

## CC1(C)CCC(CN2CCN(c3ccc(C(=O)NS(=O)(=O)c4ccc(NCC5CCOCC5)c([N+](=O)[O-])c4)c(Oc4cnc5[nH]ccc5c4)c3)CC2)=C(c2ccc(Cl)cc2)C1 [Venetoclax, 4-(4-{[2-(4-chlorophenyl)-4,4-dimethylcyclohex-1-en-1-yl]methyl}piperazin-1-yl)-N-({3nitro-4-[(tetrahydro-2H-pyran-4-ylmethyl)amino]phenyl}sulfonyl)-2-(1H-pyrrolo[2,3-b]pyridin5-yloxy)benzamide]
Cycle 2, SE1, n = 22
  Venetoclax dose delay by end of each cycle: 14 (63) n (%)
  Venetoclax dose delay by end of each cycle, Median # days (range): 7.5 (1-21) days
Cycle 2, SE2, n = 21
  Venetoclax dose delay by end of each cycle: 13 (62) n (%)
  Venetoclax dose delay by end of each cycle, Median # days (range): 8 (5-21) days
Cycle 3, SE1, n = 22
  Venetoclax dose delay by end of each cycle: 12 (55) n (%)
  Venetoclax dose delay by end of each cycle, Median # days (range): 14 (3-28) days
Cycle 3, SE2, n = 21
  Venetoclax dose delay by end of each cycle: 10 (48) n (%)
  Venetoclax dose delay by end of each cycle, Median # days (range): 8.5 (1-48) days
Cycle 4, SE1, n = 22
  Venetoclax dose delay by end of each cycle: 8 (36) n (%)
  Venetoclax dose delay by end of each cycle, Median # days (range): 17 (1-54) days
Cycle 4, SE2, n = 21
  Venetoclax dose delay by end of each cycle: 6 (28) n (%)
  Venetoclax dose delay by end of each cycle, Median # days (range): 9 (6-43) days
Cycle 5, SE1, n = 22
  Venetoclax dose delay by end of each cycle: 7 (32) n (%)
  Venetoclax dose delay by end of each cycle, Median # days (range): 14 (3-28) days
Cycle 5, SE2, n = 21
  Venetoclax dose delay by end of each cycle: 9 (43) n (%)
  Venetoclax dose delay by end of each cycle, Median # days (range): 14 (1-97) days
Cycle 6, SE1, n = 22
  Venetoclax dose delay by end of each cycle: 7 (32) n (%)
  Venetoclax dose delay by end of each cycle, Median # days (range): 7 (1-21) days
Cycle 6, SE2, n = 21
  Venetoclax dose delay by end of each cycle: 5 (24) n (%)
  Venetoclax dose delay by end of each cycle, Median # days (range): 14 (6-91) days
SE1, n = 22
  # of reductions in Venetoclax duration (due to hematologic toxicity): 3 (14)
  Patients with ≥1 Ven dose amount reduction: 10 (45) n (%)
  Venetoclax: Median days to duration reduction: 52 days
SE2, n = 21
  # of reductions in Venetoclax duration (due to hematologic toxicity): 0
  Patients with ≥1 Ven dose amount reduction: 10 (48) n (%)
